Measurements published in ChEMBL document CHEMBL3885861, “Open TG-GATES”.

Species on record: Rattus norvegicus
Test: Open TG-GATES - Regimen: Daily Repeat
Assay type: toxicity, organism-based, Sprague-Dawley
Design: regimen Daily Repeat, gender Male, age 6 weeks
Conditions: in vivo, iv, route intravenous injection; for APTT / Bas / Eos / Fbg / Hb / Ht / Lym / MCH / MCHC / MCV / Mono / Neu / PT / Plat / RBC / Ret / WBC: tissue Blood; for KIDNEY_L / KIDNEY_R / KIDNEY_TOTAL: tissue Kidney; for LIVER: tissue Liver; for A/G / ALP / ALT / AST / BUN / CRE / Ca / Cl / DBIL / GLC / IP / K / LDH / Na / PL / RALB / TBIL / TC / TG / TP / gamma-GTP: tissue Plasma
[1] = 0 mg/kg, 72 h, dose level Control, time 3 day
[2] = 0 mg/kg, […], dose level Control, time 7 day
[3] = 0 mg/kg, […], dose level Control, time 14 day
[4] = 0 mg/kg, […], dose level Control, time 28 day
[5] = 4 mg/kg, 72 h, dose level Low, time 3 day
[6] = 4 mg/kg, […], dose level Low, time 7 day
[7] = 4 mg/kg, […], dose level Low, time 14 day
[8] = 4 mg/kg, […], dose level Low, time 28 day

CN(C)c1ncnc2c1ncn2[C@@H]1O[C@H](CO)[C@@H](N)[C@H]1O [PUROMYCIN AMINONUCLEOSIDE]
TERMINAL_BW [1]: 230.5 g
APTT [1]: 22.1 s
Bas [1]: 0%
Eos [1]: 1%
Fbg [1]: 290.4 mg/dL
Hb [1]: 12.9 g/dL
Ht [1]: 37.6%
Lym [1]: 76.8%
MCH [1]: 21.1 pg
MCHC [1]: 34.2%
MCV [1]: 61.7 fL
Mono [1]: 2.6%
Neu [1]: 18.8%
PT [1]: 16.1 s
Plat [1]: 127.4 x10_4/uL
RBC [1]: 610 x10_4/ul
Ret [1]: 5.7%
WBC [1]: 113.8 x10_2/uL
KIDNEY_L [1]: 1 g
KIDNEY_R [1]: 1 g
KIDNEY_TOTAL [1]: 2 g
LIVER [1]: 10.3 g
A/G [1]: 1.3
ALP [1]: 1374.2 IU/L
ALT [1]: 40.6 IU/L
AST [1]: 74 IU/L
BUN [1]: 17.2 mg/dL
CRE [1]: 0.2 mg/dL
Ca [1]: 10.9 mg/dL
Cl [1]: 106.6 meq/L
DBIL [1]: 0 mg/dL
GLC [1]: 195.8 mg/dL
IP [1]: 6.8 mg/dL
K [1]: 4.7 meq/L
LDH [1]: 183.8 IU/L
Na [1]: 142.2 meq/L
PL [1]: 141.6 mg/dL
RALB [1]: 3.1 g/dL
TBIL [1]: 0.008 mg/dL
TC [1]: 73.2 mg/dL
TG [1]: 95.2 mg/dL
TP [1]: 5.4 g/dL
gamma-GTP [1]: 1.8 IU/L
TERMINAL_BW [2]: 262.2 g
TERMINAL_BW [3]: 322.5 g
TERMINAL_BW [4]: 396.1 g
APTT [2]: 22.5 s
Bas [2]: 0%
Eos [2]: 1%
Fbg [2]: 274.8 mg/dL
Hb [2]: 13.7 g/dL
Ht [2]: 39.4%
Lym [2]: 80.4%
MCH [2]: 21.3 pg
MCHC [2]: 34.9%
MCV [2]: 61 fL
Mono [2]: 2%
Neu [2]: 15.6%
PT [2]: 16 s
Plat [2]: 111 x10_4/uL
RBC [2]: 645.6 x10_4/ul
Ret [2]: 4.8%
WBC [2]: 97.9 x10_2/uL
APTT [3]: 22 s
Bas [3]: 0%
Eos [3]: 0.8%
Fbg [3]: 293.8 mg/dL
Hb [3]: 14 g/dL
Ht [3]: 39.5%
Lym [3]: 79.4%
MCH [3]: 20.6 pg
MCHC [3]: 35.5%
MCV [3]: 58.3 fL
Mono [3]: 3.2%
Neu [3]: 15%
PT [3]: 16.3 s
Plat [3]: 109.5 x10_4/uL
RBC [3]: 679 x10_4/ul
Ret [3]: 3.4%
WBC [3]: 120 x10_2/uL
APTT [4]: 25.7 s
Bas [4]: 0%
Eos [4]: 1%
Fbg [4]: 299.6 mg/dL
Hb [4]: 15.2 g/dL
Ht [4]: 42.3%
Lym [4]: 74.6%
MCH [4]: 19.6 pg
MCHC [4]: 35.8%
MCV [4]: 54.8 fL
Mono [4]: 3.4%
Neu [4]: 19.6%
PT [4]: 16.3 s
Plat [4]: 105.3 x10_4/uL
RBC [4]: 772.2 x10_4/ul
Ret [4]: 2.2%
WBC [4]: 111.8 x10_2/uL
KIDNEY_L [2]: 1 g
KIDNEY_R [2]: 1.1 g
KIDNEY_TOTAL [2]: 2.1 g
KIDNEY_L [3]: 1.2 g
KIDNEY_R [3]: 1.2 g
KIDNEY_TOTAL [3]: 2.4 g
KIDNEY_L [4]: 1.3 g
KIDNEY_R [4]: 1.3 g
KIDNEY_TOTAL [4]: 2.7 g
LIVER [2]: 12.2 g
LIVER [3]: 13.6 g
LIVER [4]: 14.9 g
A/G [2]: 1.2
ALP [2]: 1257.2 IU/L
ALT [2]: 35.4 IU/L
AST [2]: 63 IU/L
BUN [2]: 17.6 mg/dL
CRE [2]: 0.2 mg/dL
Ca [2]: 10.7 mg/dL
Cl [2]: 105.6 meq/L
DBIL [2]: 0 mg/dL
GLC [2]: 210.6 mg/dL
IP [2]: 7.3 mg/dL
K [2]: 4 meq/L
LDH [2]: 167.4 IU/L
Na [2]: 142 meq/L
PL [2]: 141.6 mg/dL
RALB [2]: 3 g/dL
TBIL [2]: 0.018 mg/dL
TC [2]: 67.2 mg/dL
TG [2]: 108.8 mg/dL
TP [2]: 5.5 g/dL
gamma-GTP [2]: 1.4 IU/L
A/G [3]: 1.3
ALP [3]: 1494.8 IU/L
ALT [3]: 36.8 IU/L
AST [3]: 69.4 IU/L
BUN [3]: 19.2 mg/dL
CRE [3]: 0.2 mg/dL
Ca [3]: 10.9 mg/dL
Cl [3]: 104.6 meq/L
DBIL [3]: 0 mg/dL
GLC [3]: 204.2 mg/dL
IP [3]: 7.2 mg/dL
K [3]: 4.3 meq/L
LDH [3]: 176.8 IU/L
Na [3]: 141.6 meq/L
PL [3]: 144.4 mg/dL
RALB [3]: 3.1 g/dL
TBIL [3]: 0.006 mg/dL
TC [3]: 65.8 mg/dL
TG [3]: 119.8 mg/dL
TP [3]: 5.6 g/dL
gamma-GTP [3]: 2 IU/L
A/G [4]: 1
ALP [4]: 1115.6 IU/L
ALT [4]: 31 IU/L
AST [4]: 60.5 IU/L
BUN [4]: 18.6 mg/dL
CRE [4]: 0.2 mg/dL
Ca [4]: 10.4 mg/dL
Cl [4]: 104.2 meq/L
DBIL [4]: 0 mg/dL
GLC [4]: 184.8 mg/dL
IP [4]: 6.1 mg/dL
K [4]: 4.2 meq/L
LDH [4]: 174 IU/L
Na [4]: 142.6 meq/L
PL [4]: 133.4 mg/dL
RALB [4]: 3.1 g/dL
TBIL [4]: 0.01 mg/dL
TC [4]: 68.2 mg/dL
TG [4]: 101.2 mg/dL
TP [4]: 6.1 g/dL
gamma-GTP [4]: 2 IU/L
TERMINAL_BW [5]: 232.9 g
APTT [5]: 20.8 s
Bas [5]: 0%
Eos [5]: 1%
Fbg [5]: 318.6 mg/dL
Hb [5]: 13.1 g/dL
Ht [5]: 38.3%
Lym [5]: 78.6%
MCH [5]: 21.3 pg
MCHC [5]: 34.3%
MCV [5]: 62.1 fL
Mono [5]: 3%
Neu [5]: 16.2%
PT [5]: 15.9 s
Plat [5]: 136.9 x10_4/uL
RBC [5]: 616 x10_4/ul
Ret [5]: 5.3%
WBC [5]: 98.6 x10_2/uL
KIDNEY_L [5]: 1 g
KIDNEY_R [5]: 1 g
KIDNEY_TOTAL [5]: 1.9 g
LIVER [5]: 10.2 g
A/G [5]: 1.3
ALP [5]: 1424.8 IU/L
ALT [5]: 40.8 IU/L
AST [5]: 73.4 IU/L
BUN [5]: 17.4 mg/dL
CRE [5]: 0.2 mg/dL
Ca [5]: 11.1 mg/dL
Cl [5]: 104.2 meq/L
DBIL [5]: 0 mg/dL
GLC [5]: 189.4 mg/dL
IP [5]: 7.6 mg/dL
K [5]: 4.4 meq/L
LDH [5]: 200.6 IU/L
Na [5]: 141.6 meq/L
PL [5]: 149.2 mg/dL
RALB [5]: 3 g/dL
TBIL [5]: 0.02 mg/dL
TC [5]: 76 mg/dL
TG [5]: 102.2 mg/dL
TP [5]: 5.5 g/dL
gamma-GTP [5]: 1.2 IU/L
TERMINAL_BW [6]: 256.3 g
TERMINAL_BW [7]: 310.3 g
TERMINAL_BW [8]: 371.4 g
APTT [6]: 21 s
Bas [6]: 0%
Eos [6]: 1.4%
Fbg [6]: 282.8 mg/dL
Hb [6]: 13.4 g/dL
Ht [6]: 38.8%
Lym [6]: 76.4%
MCH [6]: 20.5 pg
MCHC [6]: 34.4%
MCV [6]: 59.4 fL
Mono [6]: 2%
Neu [6]: 19.2%
PT [6]: 15.9 s
Plat [6]: 118.6 x10_4/uL
RBC [6]: 654.8 x10_4/ul
Ret [6]: 3.7%
WBC [6]: 112.4 x10_2/uL
APTT [7]: 23.5 s
Bas [7]: 0%
Eos [7]: 0.8%
Fbg [7]: 303.4 mg/dL
Hb [7]: 13.6 g/dL
Ht [7]: 38.9%
Lym [7]: 77.8%
MCH [7]: 20.7 pg
MCHC [7]: 35%
MCV [7]: 59.1 fL
Mono [7]: 2.4%
Neu [7]: 18%
PT [7]: 16.3 s
Plat [7]: 133.5 x10_4/uL
RBC [7]: 658 x10_4/ul
Ret [7]: 4.7%
WBC [7]: 105.4 x10_2/uL
APTT [8]: 23.1 s
Bas [8]: 0%
Eos [8]: 1.6%
Fbg [8]: 538.4 mg/dL
Hb [8]: 14.5 g/dL
Ht [8]: 40%
Lym [8]: 72.8%
MCH [8]: 20.2 pg
MCHC [8]: 36.3%
MCV [8]: 55.6 fL
Mono [8]: 3.2%
Neu [8]: 21.8%
PT [8]: 14.6 s
Plat [8]: 134.3 x10_4/uL
RBC [8]: 719.6 x10_4/ul
Ret [8]: 2.5%
WBC [8]: 156.1 x10_2/uL
KIDNEY_L [6]: 1 g
KIDNEY_R [6]: 1.1 g
KIDNEY_TOTAL [6]: 2.1 g
KIDNEY_L [7]: 1.2 g
KIDNEY_R [7]: 1.3 g
KIDNEY_TOTAL [7]: 2.5 g
KIDNEY_L [8]: 1.5 g
KIDNEY_R [8]: 1.4 g
KIDNEY_TOTAL [8]: 2.9 g
LIVER [6]: 11 g
LIVER [7]: 12.6 g
LIVER [8]: 16.8 g
A/G [6]: 1.2
ALP [6]: 1296.4 IU/L
ALT [6]: 37.8 IU/L
AST [6]: 67.8 IU/L
BUN [6]: 17 mg/dL
CRE [6]: 0.2 mg/dL
Ca [6]: 10.6 mg/dL
Cl [6]: 107.2 meq/L
DBIL [6]: 0 mg/dL
GLC [6]: 180.6 mg/dL
IP [6]: 6.7 mg/dL
K [6]: 4.1 meq/L
LDH [6]: 149.6 IU/L
Na [6]: 142.6 meq/L
PL [6]: 139.4 mg/dL
RALB [6]: 3 g/dL
TBIL [6]: 0.014 mg/dL
TC [6]: 73.4 mg/dL
TG [6]: 87.8 mg/dL
TP [6]: 5.5 g/dL
